The values that follow are results of earlier work, collected in US20220339173A1, “ORAL COMPOSITION FOR IMPROVING MEMORY-LEARNING ABILITY” (priority 2019, published 2022).

The data set has as its system c-Fos activity.

Regarding phosphatidylserine, the “c-Fos activity in the hippocampus” value (hippocampus) is “no changes”. For the same substance, the “c-Fos activity in the paraventricular nucleus” value (paraventricular nucleus) was “changes in c-Fos activity in the brain region are found”.
